Values quoted from earlier work as cited in US20100278946A1, “HERBAL COMPOSITIONS COMPRISING PLANT MATERIAL OF ARTEMISIA HERBA-ALBA (ASSO) ASTERACEAE AND/OR EXTRACTS THEREOF” (priority 2007, published 2010).
Read-outs that look alike come from different tables or passages of the source.

Key:
[1] = system: noncompetitive blocker site of the GABA gated chloride channel
[2] = system: gamma-aminobutyric acid (GABA) type A receptor; conditions: rat dorsal root ganglion neurons
[3] = 2.5 min after administration of alpha-thujone
[4] = 30 min after administration of alpha-thujone, 40-60 mg/kg

## CC1C(=O)CC2(C(C)C)CC12 (stereo not drawn) [Beta-thujone, beta-thujone]
mice; mice (Rice and Wilson, 1976) and Drosophila
  toxicity compared with alpha-thujone: less toxic
[1]; [3H]EBOB assay
  potency relative to alpha-thujone (fold less potent): 2.3 fold

## CN1C(=O)CN=C(c2ccccc2)c2cc(Cl)ccc21 [diazepam]
mice; intraperitoneal administration 15 min before alpha-thujone at 100 mg/kg
  survival of mice given an otherwise lethal dose of alpha-thujone: almost all of the mice surviving

## CC(C)[C@]12CC(=O)[C@H](C)[C@H]1C2 [alpha-thujone]
mice; mice at the higher dose (60 mg/kg)
  time to death after tonic convulsion: ≤ 1 min
mice; mice, dose of 30 mg/kg
  mortality: no death
mice; mice, dose of 60 mg/kg
  mortality: 100%
mice; mice, i.p.
  i.p. LD50: about 45 mg/kg
[3]
  level in the brain: 11 ppm
[4]
  level in the brain: 0.3-1.0 ppm
[2]
  effect on GABA-induced peak currents: suppressed
[1]
  mode of inhibition of EBOB binding: competitive inhibitor
[1]; [3H]EBOB binding assay
  potency compared with 7-hydroxy-alpha-thujone (fold more potent): 56 fold

## CC1C(=O)CC2(C(C)(C)O)CC12 (stereo not drawn) [7-hydroxy-alpha-thujone]
[3]
  level in the brain: 29 ppm
[4]
  level in the brain: 1.5-8.4 ppm
